{"source": "the NIST ThermoML archive (doi:10.1016/j.jct.2004.12.004)", "test": "mn = molality of the nth substance listed, in mol/kg", "conditions": "350 kPa, Liquid, Extra sensitive DSC", "note": "± gives the expanded uncertainty stated by the source.", "data": [{"smiles": "OC[C@H]1O[C@@](CO)(O[C@H]2O[C@H](CO)[C@@H](O)[C@H](O)[C@H]2O)[C@@H](O)[C@@H]1O", "note": "[D-sucrose] + O", "values": [{"measurement": "apparent molar heat capacity", "setting": "278.15 K, m1 = 0.01461", "result": "532.5 ± 70", "unit": "J/K/mol"}, {"measurement": "apparent molar heat capacity", "setting": "278.15 K, m1 = 0.03048", "result": "533.5 ± 34", "unit": "J/K/mol"}, {"measurement": "apparent molar heat capacity", "setting": "278.15 K, m1 = 0.06172", "result": "533.8 ± 18", "unit": "J/K/mol"}, {"measurement": "apparent molar heat capacity", "setting": "278.15 K, m1 = 0.1302", "result": "535.7 ± 9.3", "unit": "J/K/mol"}, {"measurement": "apparent molar heat capacity", "setting": "278.15 K, m1 = 0.2486", "result": "538.6 ± 5.6", "unit": "J/K/mol"}, {"measurement": "apparent molar heat capacity", "setting": "278.15 K, m1 = 0.4969", "result": "544.2 ± 3.7", "unit": "J/K/mol"}, {"measurement": "apparent molar heat capacity", "setting": "278.15 K, m1 = 0.746", "result": "548.9 ± 3", "unit": "J/K/mol"}, {"measurement": "apparent molar heat capacity", "setting": "278.15 K, m1 = 0.9972", "result": "554.2 ± 2.7", "unit": "J/K/mol"}, {"measurement": "apparent molar heat capacity", "setting": "278.15 K, m1 = 1.489", "result": "560.3 ± 2.4", "unit": "J/K/mol"}, {"measurement": "apparent molar heat capacity", "setting": "278.15 K, m1 = 1.99", "result": "566.8 ± 2.2", "unit": "J/K/mol"}, {"measurement": "apparent molar heat capacity", "setting": "278.15 K, m1 = 2.99", "result": "577.9 ± 2.1", "unit": "J/K/mol"}, {"measurement": "apparent molar heat capacity", "setting": "278.15 K, m1 = 3.995", "result": "587.9 ± 2", "unit": "J/K/mol"}, {"measurement": "apparent molar heat capacity", "setting": "283.15 K, m1 = 0.01461", "result": "567.4 ± 70", "unit": "J/K/mol"}, {"measurement": "apparent molar heat capacity", "setting": "283.15 K, m1 = 0.03048", "result": "567.3 ± 34", "unit": "J/K/mol"}, {"measurement": "apparent molar heat capacity", "setting": "283.15 K, m1 = 0.06172", "result": "568.9 ± 18", "unit": "J/K/mol"}, {"measurement": "apparent molar heat capacity", "setting": "283.15 K, m1 = 0.1302", "result": "569.8 ± 9.4", "unit": "J/K/mol"}, {"measurement": "apparent molar heat capacity", "setting": "283.15 K, m1 = 0.2486", "result": "572 ± 5.7", "unit": "J/K/mol"}, {"measurement": "apparent molar heat capacity", "setting": "283.15 K, m1 = 0.4969", "result": "575.9 ± 3.8", "unit": "J/K/mol"}, {"measurement": "apparent molar heat capacity", "setting": "283.15 K, m1 = 0.746", "result": "579.3 ± 3.1", "unit": "J/K/mol"}, {"measurement": "apparent molar heat capacity", "setting": "283.15 K, m1 = 0.9972", "result": "583.7 ± 2.8", "unit": "J/K/mol"}, {"measurement": "apparent molar heat capacity", "setting": "283.15 K, m1 = 1.489", "result": "587.9 ± 2.4", "unit": "J/K/mol"}, {"measurement": "apparent molar heat capacity", "setting": "283.15 K, m1 = 1.99", "result": "593.1 ± 2.3", "unit": "J/K/mol"}, {"measurement": "apparent molar heat capacity", "setting": "283.15 K, m1 = 2.99", "result": "601.8 ± 2.2", "unit": "J/K/mol"}, {"measurement": "apparent molar heat capacity", "setting": "283.15 K, m1 = 3.995", "result": "610 ± 2.1", "unit": "J/K/mol"}, {"measurement": "apparent molar heat capacity", "setting": "288.15 K, m1 = 0.01461", "result": "596.7 ± 70", "unit": "J/K/mol"}, {"measurement": "apparent molar heat capacity", "setting": "288.15 K, m1 = 0.03048", "result": "596.6 ± 35", "unit": "J/K/mol"}, {"measurement": "apparent molar heat capacity", "setting": "288.15 K, m1 = 0.06172", "result": "597.7 ± 18", "unit": "J/K/mol"}, {"measurement": "apparent molar heat capacity", "setting": "288.15 K, m1 = 0.1302", "result": "598.1 ± 9.5", "unit": "J/K/mol"}, {"measurement": "apparent molar heat capacity", "setting": "288.15 K, m1 = 0.2486", "result": "599.7 ± 5.8", "unit": "J/K/mol"}, {"measurement": "apparent molar heat capacity", "setting": "288.15 K, m1 = 0.4969", "result": "602.4 ± 3.8", "unit": "J/K/mol"}, {"measurement": "apparent molar heat capacity", "setting": "288.15 K, m1 = 0.746", "result": "604.7 ± 3.2", "unit": "J/K/mol"}, {"measurement": "apparent molar heat capacity", "setting": "288.15 K, m1 = 0.9972", "result": "608.3 ± 2.8", "unit": "J/K/mol"}, {"measurement": "apparent molar heat capacity", "setting": "288.15 K, m1 = 1.489", "result": "611 ± 2.5", "unit": "J/K/mol"}, {"measurement": "apparent molar heat capacity", "setting": "288.15 K, m1 = 1.99", "result": "614.9 ± 2.4", "unit": "J/K/mol"}, {"measurement": "apparent molar heat capacity", "setting": "288.15 K, m1 = 2.99", "result": "621.5 ± 2.2", "unit": "J/K/mol"}, {"measurement": "apparent molar heat capacity", "setting": "288.15 K, m1 = 3.995", "result": "628.2 ± 2.1", "unit": "J/K/mol"}, {"measurement": "apparent molar heat capacity", "setting": "293.15 K, m1 = 0.01461", "result": "622 ± 70", "unit": "J/K/mol"}, {"measurement": "apparent molar heat capacity", "setting": "293.15 K, m1 = 0.03048", "result": "621.8 ± 35", "unit": "J/K/mol"}, {"measurement": "apparent molar heat capacity", "setting": "293.15 K, m1 = 0.06172", "result": "622.6 ± 18", "unit": "J/K/mol"}, {"measurement": "apparent molar heat capacity", "setting": "293.15 K, m1 = 0.1302", "result": "622.7 ± 9.6", "unit": "J/K/mol"}, {"measurement": "apparent molar heat capacity", "setting": "293.15 K, m1 = 0.2486", "result": "623.7 ± 5.9", "unit": "J/K/mol"}, {"measurement": "apparent molar heat capacity", "setting": "293.15 K, m1 = 0.4969", "result": "625.6 ± 3.9", "unit": "J/K/mol"}, {"measurement": "apparent molar heat capacity", "setting": "293.15 K, m1 = 0.746", "result": "627.1 ± 3.2", "unit": "J/K/mol"}, {"measurement": "apparent molar heat capacity", "setting": "293.15 K, m1 = 0.9972", "result": "629.8 ± 2.9", "unit": "J/K/mol"}, {"measurement": "apparent molar heat capacity", "setting": "293.15 K, m1 = 1.489", "result": "631.4 ± 2.6", "unit": "J/K/mol"}, {"measurement": "apparent molar heat capacity", "setting": "293.15 K, m1 = 1.99", "result": "634.1 ± 2.4", "unit": "J/K/mol"}, {"measurement": "apparent molar heat capacity", "setting": "293.15 K, m1 = 2.99", "result": "639 ± 2.3", "unit": "J/K/mol"}, {"measurement": "apparent molar heat capacity", "setting": "293.15 K, m1 = 3.995", "result": "644.5 ± 2.2", "unit": "J/K/mol"}, {"measurement": "apparent molar heat capacity", "setting": "298.15 K, m1 = 0.01461", "result": "642.1 ± 70", "unit": "J/K/mol"}, {"measurement": "apparent molar heat capacity", "setting": "298.15 K, m1 = 0.03048", "result": "642.9 ± 35", "unit": "J/K/mol"}, {"measurement": "apparent molar heat capacity", "setting": "298.15 K, m1 = 0.06172", "result": "644 ± 18", "unit": "J/K/mol"}, {"measurement": "apparent molar heat capacity", "setting": "298.15 K, m1 = 0.1302", "result": "643.9 ± 9.6", "unit": "J/K/mol"}, {"measurement": "apparent molar heat capacity", "setting": "298.15 K, m1 = 0.2486", "result": "644.7 ± 6", "unit": "J/K/mol"}, {"measurement": "apparent molar heat capacity", "setting": "298.15 K, m1 = 0.4969", "result": "646 ± 4", "unit": "J/K/mol"}]}]}
